Assay [1] deals with myocardiale Radio-Calciumaufnahme. The experiment in a line: Cardioprotective effect: inhibition of isoprenaline-induced myocardial radio-calcium uptake in conscious rats (method of Arndts). The note with it: s.c. or p.o., dose that inhibits by 50 % the myocardial radio-calcium uptake caused by 30 mg/kg s.c. Isoprenalin. The class given is in vivo, Ratten. From the text: Die cardioprotektive Wirkung wird auf folgende Weise bestimmt: Bekanntlich ist der mycardiale Ca⁺²-Gehalt ein Maß für die hypoxische bzw. die durch toxische Catecholamindosen hervorgerufene Herzschädigung (Higgins et al., Mol. Cell. Cardiol. 10: 427 - 438, 1984; Nakanishi et al., Am. J. Physiol. 242: 437 - 449, 1982; Fleckenstein, A., Vorträge der Erlanger Physiol. Tagung 1970, Ed. Keidel, Springer Verlag Berlin, Heidelberg, New York, 1971). Umgekehrt ist die Inhibition der hypoxischen oder Isoprenalin-bedingten myocardialen Calciumaufnahme ein Maß für die cardioprotektive Effektivität von Calciumantagonisten (Fleckenstein s.o.), von Calmodulininhibitoren (Higgins) und anderen Pharmaka, z.B. Betaadrenolytika (Arndts, Arzneimittelforschung 25: 1279 -1284, 1975).
Die cardioprotektive Wirkung wurde an wachen Ratten nach subcutaner oder peroraler Wirkstoffgabe anhand der von Arndts (s.o.) beschriebenen Methode festgestellt, und die Wirkungsstärke der Testsubstanzen als H₅₀-Wert angegeben; dieser Wert entspricht der Dosis, die die durch eine Gabe von 30 (mg/kg; s.c.) Isoprenalin bedingte, myocardiale Radio-Calciumaufnahme zu 50 % hemmt. Hier erwiesen sich die untersuchten neuen Verbindungen als ebenso wirksam wie Nifedipin.

Another assay relates to Kaninchen-Aortenstreifen. The assay can be described thus: Calcium ion kinetics (45Ca2+ efflux) in rabbit aortic strips. Particulars: for Potenzierung des stimulierten Ca²⁺-Efflux: stimulation with 80 mM K⁺. The source says:
Bestimmung der Calcium-Ionenkinetik an Kaninchen-Aortenstreifen
Methode nach C. van Breemen, P. Aaronson, R. Loutzenheiser und K. Meisheri CHEST 78: 157s - 165s (1980) und R. Casteels & G. Droogman J. Physiol 317: 263 - 279 (1981)
Methode: Mit ⁴⁵Ca²⁺ geladene Aortenstreifen werden sequentiell äquilibriert in physiologischer Lösung. Dabei tauscht das intrazelluläre Ca²⁺ mit dem extrazellulären Ca²⁺ aus, das heißt im extrazellulären Bad ist das radioaktive ⁴⁵Ca²⁺ meßbar. Auf eine Stimulation mit 80 mM K⁺ oder 10⁻⁵ Mol/l Noradrenalin (NA) hin wird der Austausch beschleunigt. Dabei ist die im Bad ansteigende Radioaktivität ein Maß für den Ca²⁺-Efflux. So wird das Ausmaß der durch die Stimulation freigesetzten Ca²⁺ als Effluxrate bestimmt.

The nature of assay [2]: Microiontophoresis (standard method). From the text:
Die Mikrointophorese wurde gemäß Standardmethode durchgeführt.

The next assay relates to Tieren. The assay can be described thus: Hypoxia tolerance test: survival of animals in a closed chamber. The class given is in vivo. Particulars: gas mixture 96,5 % nitrogen and 3,5 % oxygen; doses up to 30 mg/kg.
For a further assay, the system named is Isoliertes Rattenherz. The assay can be described thus: Isolated Langendorff rat heart, low-flow oxygen deficiency and reperfusion: time to onset of regular contractions. Particulars: concentration giving a significant reduction of the time to onset of regular contractions; infusion during O2 deficiency. The arrangement: species or system Ratten. As for the experimental part: Die Untersuchungen am isolierten Langendorff-Herzen wurden nach O. Langendorff, Pflügers Arch. 61, 291 (1895) mit kleinen Abwandlungen ausgeführt:
Isoliertes Rattenherz, retrograde Perfusion über die Aorta. Elektrische Stimulation (300 Impulse/min. Impulsdauer Imsec.). Messung des linksventrikulär entwickelten Druckes mit flüssigkeitsgefülltem Latex-Ballon. Nach 20 min Aequilibrierung Auslösen eines Sauerstoff-Mangelzustandes mit 100-fach vermindertem Fluß durch Drosselung des Perfusionsflusses für 60 min, Rückkehr zu normalem Fluß bewirkt starken Anstieg der Grundspannung, unter Kontrollbedingungen setzt die Herztätigkeit nach 6 - 7 min unregelmäßig wieder ein, nach 15 -18 min rascher Übergang zu regelmäßigen Kontraktionen. Cardioprotektiv wirksame Verbindungen verkürzen die Zeit bis zum Einsetzen regelmäßiger Kontraktionen. Infusion der Testsubstanz (gelöst in unbegastem Perfusionsmedium) während des 0₂-Mangelzustandes herznah in das Perfusionssystem.
Die getesteten Verbindungen ergaben bei Anwendung in der unten angegebenen Konzentration eine signifikante Reduktion der Zeit bis zum Einsetzen regelmäßiger Kontraktionen.

Assay [3] is described as follows: Scopolamine-induced impairment of short-term memory (scopolamine dementia). The assay is classed as in vivo. The note with it: Scopolamin 0,6 mg/kg i.p. From the text: In Vesuchen mit Einschränkung des Kurzzeitgedächtnisses bzw.

As for “3,4-Dihydro-6,7-dimethoxy-12-(2-methoxyethyl)-amino-pyridazino [4ʹ,5ʹ : 3,4] pyrrolo [2,1-a] isochinolin”, the H50-Wert in assay [1] is 1,92.
For the molecule “3,4-Dihydro-6,7-dimethoxy-12-(3-dimethylaminopropyl)-aminopyridazino [4ʹ,5ʹ : 3,4]pyrrolo[2,1-a]isochinolin”, the H50-Wert in assay [1] is listed as 0,46. In addition, the “Potenzierung des stimulierten Ca²⁺-Efflux” value in the assay on Kaninchen-Aortenstreifen is given as 11%. Moreover, the “Hemmung des stimulierten Ca²⁺-Efflux” value in the assay with Kaninchen-Aortenstreifen (stimulation with 10⁻⁵ Mol/l Noradrenalin (NA)) is on record as 19%. The Mikroiontophorese result in assay [2] was “wirksam (wirksam: Im Dosenbereich bis einschließlich 30 mg/kg zeigen in der mit Substanz behandelten Tiergruppe signifikant mehr Tiere den gewünschten Effekt als in der Kontrollgruppe.)”. In addition, the Hypoxie entry in the assay on Tieren was “wirksam (wirksam: Im Dosenbereich bis einschließlich 30 mg/kg zeigen in der mit Substanz behandelten Tiergruppe signifikant mehr Tiere den gewünschten Effekt als in der Kontrollgruppe.)”. Besides, the Konzentration in the assay with Isoliertes Rattenherz was 13,3 µg/ml.
Take “3,4-Dihydro-6,7-dimethoxy-12-benzylamino-pyridazino[4ʹ,5ʹ : 3,4] pyrrolo[2,1-a]isochinolin [Verbindung H]”: the Scopolamin-Demenz entry in assay [3] (doses up to 30 mg/kg) was “wirksam (wirksam: Im Dosenbereich bis einschließlich 30 mg/kg zeigen in der mit Substanz behandelten Tiergruppe signifikant mehr Tiere den gewünschten Effekt als in der Kontrollgruppe.)”.
For the molecule “3,4-Dihydro-6,7-dimethoxy-12-ethylamino-pyridazino-[4ʹ,5ʹ : 3,4] pyrrolo [2,1-a] isochinolin [B]”, the “Potenzierung des stimulierten Ca²⁺-Efflux” value with Kaninchen-Aortenstreifen is listed as 27%. In addition, the Hypoxie entry in the assay on Tieren is “wirksam (wirksam: Im Dosenbereich bis einschließlich 30 mg/kg zeigen in der mit Substanz behandelten Tiergruppe signifikant mehr Tiere den gewünschten Effekt als in der Kontrollgruppe.)”.
In the case of “3,4-Dihydro-6,7-dimethoxy-12-isopropylamino-pyridazino-[4ʹ,5ʹ : 3,4] pyrrolo [2,1-a] isochinolin”, the Hypoxie result in the assay with Tieren is recorded as “wirksam (wirksam: Im Dosenbereich bis einschließlich 30 mg/kg zeigen in der mit Substanz behandelten Tiergruppe signifikant mehr Tiere den gewünschten Effekt als in der Kontrollgruppe.)”.
Regarding “12-Allylamino-3,4-dihydro-6,7-dimethoxy-pyridazino-[4ʹ,5ʹ : 3,4] pyrrolo[2,1-a]isochinolin”, in assay [1], the H50-Wert is given as 2,42.
Regarding `COc1ccc([C@@H]2Sc3ccccc3N(CCN(C)C)C(=O)[C@@H]2OC(C)=O)cc1` [Diltiazem, reference compound], in the assay on Tieren, the Hypoxie entry is “unwirksam”. In addition, in assay [3] (doses up to 30 mg/kg), the Scopolamin-Demenz entry was “unwirksam”.
With `COC(=O)C1=C(C)NC(C)=C(C(=O)OC)C1c1ccccc1[N+](=O)[O-]` [Nifedipin], in the assay with Tieren, the Hypoxie result was “unwirksam”. The Scopolamin-Demenz entry is listed as “wirksam (wirksam: Im Dosenbereich bis einschließlich 30 mg/kg zeigen in der mit Substanz behandelten Tiergruppe signifikant mehr Tiere den gewünschten Effekt als in der Kontrollgruppe.)” in assay [3] (dose 1 mg/kg) and “unwirksam” in assay [3] (dose 3-30).
With `COc1ccc(CCN(C)CCCC(C#N)(c2ccc(OC)c(OC)c2)C(C)C)cc1OC` (stereo not drawn) [Verapamil], in assay [3] (doses up to 30 mg/kg), the Scopolamin-Demenz entry was “unwirksam”.
